Experimental data reported in ChEMBL document CHEMBL1128005, “Piperidine-ether based hNK1 antagonists 1: Determination of the relative and absolute stereochemical requirements” (Bioorg Med Chem Lett, 1994).

biological target: Substance-P receptor (Homo sapiens, UniProt P25103); assay: Compound was tested for the displacement of […] Substance P from hNK1 receptor in CHO cells; type: cell-based
Sequence (P25103 whole entry): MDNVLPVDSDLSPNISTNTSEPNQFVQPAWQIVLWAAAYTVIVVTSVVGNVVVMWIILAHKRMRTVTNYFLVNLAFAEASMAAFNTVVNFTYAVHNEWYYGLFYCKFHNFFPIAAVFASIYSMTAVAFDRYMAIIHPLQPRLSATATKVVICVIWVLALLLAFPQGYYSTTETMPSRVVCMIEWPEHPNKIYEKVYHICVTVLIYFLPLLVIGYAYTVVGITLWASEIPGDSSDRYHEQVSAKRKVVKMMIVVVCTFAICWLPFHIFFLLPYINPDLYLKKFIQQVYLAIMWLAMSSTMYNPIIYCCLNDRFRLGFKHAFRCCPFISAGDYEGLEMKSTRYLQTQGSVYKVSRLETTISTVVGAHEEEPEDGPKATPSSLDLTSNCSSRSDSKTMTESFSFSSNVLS

Point of comparison: FC(F)(F)c1cc(CO[C@H]2CCCN[C@@H]2c2ccccc2)cc(C(F)(F)F)c1, IC50 300 nM. Against it:
- FC(F)(F)c1cc(CO[C@H]2CCN[C@H]2c2ccccc2)cc(C(F)(F)F)c1 (racemic) — 43-fold lower, 7 nM
- FC(F)(F)c1cc(CO[C@@H]2CCCN[C@@H]2c2ccccc2)cc(C(F)(F)F)c1 (stereo in doubt) — within 1.5-fold, 350 nM
- FC(F)(F)c1cc(CO[C@@H]2CCCN[C@@H]2c2ccccc2)cc(C(F)(F)F)c1 (stereo in doubt; (+/-)2) — 210-fold lower, 1.4 nM
